# Measured values reported in patent publication US9474790B2, “Stable, protracted GLP-1/glucagon receptor co-agonists for medical use” (Novo Nordisk A/S, priority 2013, dated 2016).
# Numbered stars: 1 amine (or outer) side, 2 acyl side, 3 side chain; on linkers, the order of the positions; unused ones are H or OH. Bridge positions count the residues as written; N and C are the ends. Square brackets hold non-standard residues; d marks the D form. Side chains are listed from the residue outwards. Peptide text beside a SMILES is read from it. I, II: the chains in the order shown. * marks the point of attachment. C18 diacid = O=C(O)CCCCCCCCCCCCCCCCC(=O)*; γGlu = O=C(O)[C@H](CCC(=O)[*:2])N[*:1]; Ac4c = NC1(C(=O)O)CCC1; AEEA = NCCOCCOCC(=O)O; Aib = CC(C)(N)C(=O)O
# How the values were obtained:
# [1] = Chemical stability assessment by RP-UPLC; format: physicochemical; details: 333 μM, 8 mM phosphate buffer pH 7.3, 37° C. vs 5° C.
# Summary of the method: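 Purity loss = (purity after 14 days at 5° C. minus that at 37° C.) relative to the 5° C. value, purity being main-peak area % by RP-UPLC with UV at 215 nm. Samples were 333 μM in 8 mM phosphate, pH 7.3; gradient adjusted for outlying retention times.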
# human GLP-1 receptor = target: T1, human GLP-1 receptor (Homo sapiens, UniProt P43220); assay: GLP-1 receptor binding, 125I-GLP-1 displacement SPA on isolated membranes; details: displacement of 125I-GLP-1 from membranes; read-out: IC50 GLP-1R
# T1 construct: expressed in transfected cells; host or cells: BHK cells (parent BHKTS13), clone FCW467-12A/KZ10-1, with CRE luciferase
# Summary of the method: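 SPA displacement of 125I-GLP-1(7-36)NH2 from membranes of BHK cells expressing human GLP-1 receptor, with WGA beads, in 50 mM HEPES, 5 mM EGTA, 5 mM MgCl2, 0.005% Tween 20, pH 7.4. Incubated 2 h at 30°C; IC50 by non-linear regression, run at ≤0.001% or 2.0% final serum albumin.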
# T1 sequence (P43220 24-463): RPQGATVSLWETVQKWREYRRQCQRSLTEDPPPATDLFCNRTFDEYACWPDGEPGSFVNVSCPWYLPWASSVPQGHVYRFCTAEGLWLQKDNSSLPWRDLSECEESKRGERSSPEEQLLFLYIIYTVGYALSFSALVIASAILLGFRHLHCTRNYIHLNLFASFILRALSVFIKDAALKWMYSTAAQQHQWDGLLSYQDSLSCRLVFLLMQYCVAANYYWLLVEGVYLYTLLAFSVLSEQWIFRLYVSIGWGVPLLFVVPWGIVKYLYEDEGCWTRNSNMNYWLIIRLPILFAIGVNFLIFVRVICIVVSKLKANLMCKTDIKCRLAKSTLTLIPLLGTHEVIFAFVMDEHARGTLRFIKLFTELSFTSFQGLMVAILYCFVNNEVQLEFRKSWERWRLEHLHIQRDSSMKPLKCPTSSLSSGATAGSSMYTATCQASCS
Compound,Purity loss; 14 days at 37° C. [1] [%],IC50 (human GLP-1 receptor) [pM]
"CC(C)C[C@H](NC(=O)[C@H](CC(C)C)NC(=O)[C@H](Cc1c[nH]c2ccccc12)NC(=O)[C@H](CCC(N)=O)NC(=O)[C@@H](NC(=O)[C@H](Cc1ccccc1)NC(=O)[C@H](CCC(=O)O)NC(=O)[C@H](CCCNC(=N)N)NC(=O)[C@H](C)NC(=O)[C@H](CCCNC(=N)N)NC(=O)[C@H](CCCNC(=N)N)NC(=O)[C@H](CO)NC(=O)[C@H](CC(=O)O)NC(=O)[C@H](CC(C)C)NC(=O)[C@H](Cc1ccc(O)cc1)NC(=O)[C@H](CCCCN)NC(=O)[C@H](CO)NC(=O)[C@H](CC(C)C)NC(=O)[C@H](CC(=O)O)NC(=O)[C@H](CO)NC(=O)[C@@H](NC(=O)[C@H](Cc1ccccc1)NC(=O)[C@@H](NC(=O)CNC(=O)[C@H](CCC(N)=O)NC(=O)C(C)(C)NC(=O)[C@@H](N)Cc1c[nH]cn1)[C@@H](C)O)[C@@H](C)O)C(C)C)C(=O)N[C@@H](CC(N)=O)C(=O)N[C@@H](CCCCNC(=O)CC[C@H](NC(=O)CC[C@H](NC(=O)COCCOCCNC(=O)COCCOCCNC(=O)CC[C@H](NC(=O)CCCCCCCCCCCCCCCCC(=O)O)C(=O)O)C(=O)O)C(=O)O)C(N)=O [Example 12, N^ε29-[(4S)-4-carboxy-4-[[(4S)-4-carboxy-4-[[2-[2-[2-[[2-[2-[2-[[(4S)-4-carboxy-4-(17-carboxyheptadecanoylamino)butanoyl]amino]ethoxy]ethoxy]acetyl]amino]ethoxy]ethoxy]acetyl]amino]butanoyl]amino]butanoyl]-[Aib2,Leu10,Arg20,Glu21,Leu27,Lys29]-Glucagon amide] (H-H[Aib]QGTFTSDLSKYLDSRRAREFVQWLLNK([γGlu-γGlu-AEEA-AEEA-γGlu-C18 diacid])-NH2)",8,500
"CC(C)C[C@H](NC(=O)[C@H](Cc1ccc(O)cc1)NC(=O)[C@H](CCCCN)NC(=O)[C@H](CO)NC(=O)[C@H](CC(C)C)NC(=O)[C@H](CC(=O)O)NC(=O)[C@H](CO)NC(=O)[C@@H](NC(=O)[C@H](Cc1ccccc1)NC(=O)[C@@H](NC(=O)CNC(=O)[C@H](CCC(N)=O)NC(=O)C(C)(C)NC(=O)[C@@H](N)Cc1c[nH]cn1)[C@@H](C)O)[C@@H](C)O)C(=O)N[C@@H](CCC(=O)O)C(=O)N[C@@H](CO)C(=O)N[C@@H](CCCNC(=N)N)C(=O)N[C@@H](CCCNC(=N)N)C(=O)N[C@@H](C)C(=O)N[C@@H](CCCNC(=N)N)C(=O)N[C@@H](CCC(=O)O)C(=O)N[C@@H](Cc1ccccc1)C(=O)N[C@H](C(=O)N[C@@H](CCC(N)=O)C(=O)N[C@@H](Cc1c[nH]c2ccccc12)C(=O)N[C@@H](CC(C)C)C(=O)N[C@@H](CC(C)C)C(=O)N[C@@H](CCCCNC(=O)CC[C@H](NC(=O)CC[C@H](NC(=O)COCCOCCNC(=O)COCCOCCNC(=O)CC[C@H](NC(=O)CCCCCCCCCCCCCCCCC(=O)O)C(=O)O)C(=O)O)C(=O)O)C(=O)N[C@H](C(N)=O)[C@@H](C)O)C(C)C [Example 23, N^ε28-[(4S)-4-carboxy-4-[[(4S)-4-carboxy-4-[[2-[2-[2-[[2-[2-[2-[[(4S)-4-carboxy-4-(17-carboxyheptadecanoylamino)butanoyl]amino]ethoxy]ethoxy]acetyl]amino]ethoxy]ethoxy]acetyl]amino]butanoyl]amino]butanoyl]-[Aib2,Leu10,Glu15,Arg20,Glu21,Leu27,Lys28]-Glucagon amide] (H-H[Aib]QGTFTSDLSKYLESRRAREFVQWLLK([γGlu-γGlu-AEEA-AEEA-γGlu-C18 diacid])T-NH2; N-terminus assumed)",2,300
"CC(C)C[C@H](NC(=O)[C@H](CC(=O)O)NC(=O)[C@H](CC(C)C)NC(=O)[C@H](Cc1ccc(O)cc1)NC(=O)[C@H](CCCCN)NC(=O)[C@H](CO)NC(=O)[C@H](CC(C)C)NC(=O)[C@H](CC(=O)O)NC(=O)[C@H](CO)NC(=O)[C@@H](NC(=O)[C@H](Cc1ccccc1)NC(=O)[C@@H](NC(=O)CNC(=O)[C@H](CCC(N)=O)NC(=O)C(C)(C)NC(=O)[C@@H](N)Cc1c[nH]cn1)[C@@H](C)O)[C@@H](C)O)C(=O)N[C@@H](CCCCN)C(=O)N[C@@H](CCCNC(=N)N)C(=O)N[C@@H](C)C(=O)N[C@@H](CCCNC(=N)N)C(=O)N[C@@H](CCC(=O)O)C(=O)N[C@@H](Cc1ccccc1)C(=O)N[C@H](C(=O)N[C@@H](CCC(N)=O)C(=O)N[C@@H](Cc1c[nH]c2ccccc12)C(=O)N[C@@H](CC(C)C)C(=O)N[C@@H](CC(C)C)C(=O)N[C@@H](CCCCNC(=O)CC[C@H](NC(=O)CC[C@H](NC(=O)COCCOCCNC(=O)COCCOCCNC(=O)CC[C@H](NC(=O)CCCCCCCCCCCCCCCCC(=O)O)C(=O)O)C(=O)O)C(=O)O)C(=O)N[C@H](C(N)=O)[C@@H](C)O)C(C)C [Example 26, N^ε28-[(4S)-4-carboxy-4-[[(4S)-4-carboxy-4-[[2-[2-[2-[[2-[2-[2-[[(4S)-4-carboxy-4-(17-carboxyheptadecanoylamino)butanoyl]amino]ethoxy]ethoxy]-acetyl]amino]ethoxy]ethoxy]acetyl]amino]butanoyl]amino]butanoyl]-[Aib2,Leu10,Leu16,Lys17,Arg20,Glu21, Leu27,Lys28]-Glucagon amide] (H-H[Aib]QGTFTSDLSKYLDLKRAREFVQWLLK([γGlu-γGlu-AEEA-AEEA-γGlu-C18 diacid])T-NH2)",2,500

# Stronger by IC50 (human GLP-1 receptor), values ahead:
Purity loss; 14 days at 37° C. [1] [%],IC50 (human GLP-1 receptor) [pM],Compound
3,200,"CC(C)C[C@H](NC(=O)[C@H](Cc1ccc(O)cc1)NC(=O)[C@H](CCCCN)NC(=O)[C@H](CO)NC(=O)[C@H](CC(C)C)NC(=O)[C@H](CC(=O)O)NC(=O)[C@H](CO)NC(=O)[C@@H](NC(=O)[C@H](Cc1ccccc1)NC(=O)[C@@H](NC(=O)CNC(=O)[C@H](CCC(N)=O)NC(=O)C1(NC(=O)[C@@H](N)Cc2c[nH]cn2)CCC1)[C@@H](C)O)[C@@H](C)O)C(=O)N[C@@H](CCC(=O)O)C(=O)N[C@@H](CCC(=O)O)C(=O)N[C@@H](CCCNC(=N)N)C(=O)N[C@@H](CCCNC(=N)N)C(=O)N[C@@H](C)C(=O)N[C@@H](CCCNC(=N)N)C(=O)N[C@@H](CC(=O)O)C(=O)N[C@@H](Cc1ccccc1)C(=O)N[C@H](C(=O)N[C@@H](CCC(N)=O)C(=O)N[C@@H](Cc1c[nH]c2ccccc12)C(=O)N[C@@H](CC(C)C)C(=O)N[C@@H](CC(C)C)C(=O)N[C@@H](CCCCNC(=O)CNC(=O)[C@H](CO)NC(=O)[C@H](CCC(=O)O)NC(=O)CNC(=O)[C@H](CO)NC(=O)CC[C@H](NC(=O)CC[C@H](NC(=O)CCCCCCCCCCCCCCCCC(=O)O)C(=O)O)C(=O)O)C(=O)N[C@H](C(N)=O)[C@@H](C)O)C(C)C [Example 16, N^ε28-[2-[[(2S)-2-[[(2S)-4-carboxy-2-[[2-[[(2S)-2-[[(4S)-4-carboxy-4-[[(4S)-4-carboxy-4-(17-carboxyheptadecanoylamino)butanoyl]amino]butanoyl]amino]-3-hydroxypropanoyl]amino]acetyl]amino]butanoyl]amino]-3-hydroxypropanoyl]amino]acetyl]-[Acb2,Leu10,Glu15,Glu16,Arg20,Leu27,Lys28]-Glucagon amide] (I: H-H[Ac4c]QGTFTSDLSKYLEERRARDFVQWLLKT-NH2 / II: {C18 diacid-γGlu-γGlu}-SGESG; amide I:28-II:C; N-terminus assumed)"
1,200,"CC(C)C[C@H](NC(=O)[C@H](Cc1ccc(O)cc1)NC(=O)[C@H](CCCCN)NC(=O)[C@H](CO)NC(=O)[C@H](CC(C)C)NC(=O)[C@H](CC(=O)O)NC(=O)[C@H](CO)NC(=O)[C@@H](NC(=O)[C@H](Cc1ccccc1)NC(=O)[C@@H](NC(=O)CNC(=O)[C@H](CCC(N)=O)NC(=O)C(C)(C)NC(=O)[C@@H](N)Cc1c[nH]cn1)[C@@H](C)O)[C@@H](C)O)C(=O)N[C@@H](CCC(=O)O)C(=O)N[C@@H](CO)C(=O)N[C@@H](CCCCN)C(=O)N[C@@H](CCCNC(=N)N)C(=O)N[C@@H](C)C(=O)N[C@@H](CCCNC(=N)N)C(=O)N[C@@H](CCC(=O)O)C(=O)N[C@@H](Cc1ccccc1)C(=O)N[C@H](C(=O)N[C@@H](CCC(N)=O)C(=O)N[C@@H](Cc1c[nH]c2ccccc12)C(=O)N[C@@H](CC(C)C)C(=O)N[C@@H](CC(C)C)C(=O)N[C@@H](CCCCNC(=O)CNC(=O)[C@H](CO)NC(=O)[C@H](CCC(=O)O)NC(=O)CNC(=O)[C@H](CO)NC(=O)CC[C@H](NC(=O)CC[C@H](NC(=O)CCCCCCCCCCCCCCCCC(=O)O)C(=O)O)C(=O)O)C(=O)N[C@H](C(N)=O)[C@@H](C)O)C(C)C [Example 25, N^ε28-[2-[[(2S)-2-[[(2S)-4-carboxy-2-[[2-[[(2S)-2-[[(4S)-4-carboxy-4-[[(4S)-4-carboxy-4-(17-carboxyheptadecanoylamino)butanoyl]amino]butanoyl]amino]-3-hydroxypropanoyl]amino]acetyl]amino]butanoyl]amino]-3-hydroxypropanoyl]amino]acetyl]-[Aib2,Leu10,Glu15,Lys17,Arg20,Glu21,Leu27,Lys28]-Glucagon amide] (I: H-H[Aib]QGTFTSDLSKYLESKRAREFVQWLLKT-NH2 / II: {C18 diacid-γGlu-γGlu}-SGESG; amide I:28-II:C; N-terminus assumed)"
